Test results taken from ChEMBL document CHEMBL1153141, “Anti-tumor activity of a new series of benzoxazepine derivatives in breast cancer” (Bioorg Med Chem Lett, 2010).
Where a name gives a salt, the structure may show the parent alone. Activity calls are given as the source filed them. The calls are words filed in the database; no cut-off is given here.

Columns and labels:
MDA-MB-231 = experiment: Cytotoxicity against human MDA-MB-231 cells after 18 hrs by MTT assay; type: functional, cell-based; conditions: MDA-MB-231, 18 h
HEK293 = experiment: Cytotoxicity against HEK293 cells after 18 hrs by MTT assay; type: cell-based; conditions: human, hek293, 18 h
MCF7 [1] = experiment: Cytotoxicity against human MCF7 cells after 18 hrs by MTT assay; type: functional, cell-based; conditions: MCF7, 18 h
DU-145 = experiment: Cytotoxicity against human DU145 cells after 18 hrs by MTT assay; type: functional, cell-based; conditions: DU-145, 18 h
Ishikawa = experiment: Cytotoxicity against human Ishikawa cells after 18 hrs by MTT assay; type: functional, cell-based
MCF7 [2] = experiment: Antitumor activity against human MCF7 cells xenografted in mouse assessed as tumor volume regression at 8 to 16 mg/kg, po for 30 days; type: functional, organism-based
MCF7 [3] = experiment: Cell cycle arrest in human MCF7 cells assessed as accumulation at G0/G1 phase at 5 to 10 uM after 24 hrs using […] by flow cytometry relative to control; type: functional, cell-based
MCF7 [4] = experiment: Induction of apoptosis in human MCF7 cells at 5 to 10 uM after 24 hrs using annexin V-propidium iodide staining by flow cytometry relative to control; type: functional, cell-based

| SMILES | IC50 (MDA-MB-231) [µM] | Activity (HEK293) | IC50 (MCF7 [1]) [µM] | IC50 (DU-145) [µM] | IC50 (Ishikawa) [µM] | Activity (MCF7 [2]) | Activity (MCF7 [3]) | Activity (MCF7 [4]) |
| --- | --- | --- | --- | --- | --- | --- | --- | --- |
| Cc1ccc(S(=O)(=O)N2Cc3ccccc3OC[C@@H]2Cc2ccc(OCCN3CCCC3)cc2)cc1 | 13 | Non-toxic | 9.34 | 30 | 23.8 | – | – | – |
| Cc1ccc(S(=O)(=O)N2Cc3ccccc3OC[C@H]2Cc2ccccc2)cc1 | > 50 | – | > 50 | > 50 | > 50 | – | – | – |
| CCC(C)[C@H]1COc2ccccc2CN1S(=O)(=O)c1ccc(C)cc1 (stereo partly specified) | > 50 | – | > 50 | > 50 | > 50 | – | – | – |
| CCN(CC)CCOc1ccc(C[C@H]2COc3c(cccc3OC)CN2S(=O)(=O)c2ccc(C)cc2)cc1 | > 50 | – | > 50 | > 50 | > 50 | – | – | – |
| Cc1ccc(S(=O)(=O)N2Cc3ccccc3OCC2Cc2ccc(OCCN3CCOCC3)cc2)cc1 (stereo unspecified) | > 50 | – | > 50 | > 50 | > 50 | – | – | – |
| COc1cccc2c1OC[C@H](Cc1ccc(OCCN3CCCC3)cc1)N(S(=O)(=O)c1ccc(C)cc1)C2 | > 50 | – | > 50 | > 50 | > 50 | – | – | – |
| COc1cccc2c1OC[C@H](Cc1ccc(OCCN3CCCCCC3)cc1)N(S(=O)(=O)c1ccc(C)cc1)C2 | > 50 | – | > 50 | > 50 | > 50 | – | – | – |
| Cc1ccc(S(=O)(=O)N2Cc3ccccc3OC[C@@H]2CC(C)C)cc1 | > 50 | – | > 50 | > 50 | > 50 | – | – | – |
| Cc1ccc(S(=O)(=O)N2Cc3ccccc3OC[C@@H]2Cc2ccc(O)cc2)cc1 | > 50 | – | 29.1 | – | 34 | – | – | – |
| COc1cccc2c1OC[C@H](Cc1ccc(OCCN(C)C)cc1)N(S(=O)(=O)c1ccc(C)cc1)C2 | > 50 | – | > 50 | > 50 | > 50 | – | – | – |
| Cc1ccc(S(=O)(=O)N2Cc3ccccc3OC[C@@H]2C)cc1 | > 50 | – | > 50 | > 50 | > 50 | – | – | – |
| COc1cccc2c1OC[C@H](Cc1ccc(OCCN3CCOCC3)cc1)N(S(=O)(=O)c1ccc(C)cc1)C2 | > 50 | – | > 50 | > 50 | > 50 | – | – | – |
| COc1cccc2c1OC[C@H](Cc1ccc(OCCN3CCCCC3)cc1)N(S(=O)(=O)c1ccc(C)cc1)C2 | > 50 | – | > 50 | > 50 | > 50 | – | – | – |
| COc1ccc2c(c1)OC[C@H](Cc1ccc(OCCN3CCOCC3)cc1)N(S(=O)(=O)c1ccc(C)cc1)C2 | > 50 | – | > 50 | > 50 | > 50 | – | – | – |
| Cc1ccc(S(=O)(=O)N2Cc3ccccc3OC[C@@H]2Cc2ccccc2)cc1 | > 50 | – | > 50 | > 50 | > 50 | – | – | – |
| Cc1ccc(S(=O)(=O)N2Cc3ccccc3OC[C@@H]2Cc2c[nH]c3ccccc23)cc1 | > 50 | – | > 50 | > 50 | > 50 | – | – | – |
| CCN(CC)CCOc1ccc(C[C@H]2COc3ccccc3CN2S(=O)(=O)c2ccc(C)cc2)cc1 | 17.4 | – | 6.53 | 23 | 22.6 | Active | Active | Active |
| COc1ccc2c(c1)OC[C@H](Cc1ccc(OCCN(C)C)cc1)N(S(=O)(=O)c1ccc(C)cc1)C2 | > 50 | – | > 50 | > 50 | > 50 | – | – | – |
| CC/C(=C(\c1ccccc1)c1ccc(OCCN(C)C)cc1)c1ccccc1 [TAMOXIFEN CITRATE] | 12.3 | – | 10.2 | 15.2 | 12.5 | – | – | – |
| COc1ccc2c(c1)OC[C@H](Cc1ccc(OCCN3CCCC3)cc1)N(S(=O)(=O)c1ccc(C)cc1)C2 | > 50 | – | > 50 | > 50 | > 50 | – | – | – |
| COc1ccc2c(c1)OC[C@H](Cc1ccc(OCCN3CCCCC3)cc1)N(S(=O)(=O)c1ccc(C)cc1)C2 | > 50 | – | > 50 | > 50 | > 50 | – | – | – |
| Cc1ccc(S(=O)(=O)N2Cc3ccccc3OC[C@@H]2C(C)C)cc1 | > 50 | – | > 50 | > 50 | > 50 | – | – | – |
